According to patent US20210205292A1, “INHIBITORS OF CREB-CBP INTERACTION FOR TREATMENT OF LEUKEMIA” (The Board of Trustees of the Leland Stanford Junior …, priority 2016, published 2021):
“Also recorded” adds a separate entry of the source.

Assays:
Assay type in all cases: cell-based
[1] = test system: KG-1 cells; test: Viable cell count of engineered KG-1 cell lines (CREB KD, GFP, CREB OE, CBP OE); details: Homo sapiens, KG-1, 48 h, 48 hours
Protocol: (§1) AML cell lines were purchased from ATCC and maintained with IMDM (Gibco) supplemented with 10% FBS (Fisher Scientific) and 1% PSG (Gibco). Cells were plated at a density of 2-4×10^5 cells/ml, and treated with various doses of Compound A in 0.1% DMSO or 0.1% DMSO alone. Cell counts and viability were determined using the Vi-CELL XR Cell Viability Analyzer (Beckman Coulter). HL-60 and KG-1 cells overexpressing CREB or CBP were generated using lentiviral gene delivery with subsequent puromycin selection and FACs sorting for GFP. CREB knockdown was achieved by infecting cells with a lentivirus expressing the shRNA sequence 5′-[…]-3′ (SEQ ID NO:). For chemotherapy combination experiments, combination index values were calculated using median effects analysis on Calcusyn software. Human patient bone marrow samples were cultured in DMEM plus 20% FBS and 1×PSG, supplemented with recombinant GM-CSF (20 ng/ml), G-CSF (20 ng/ml), SCF (50 ng/ml), IL-3 (20 ng/ml), and IL-6 (10 ng/ml). Cells were plated at a concentration of 1×10^5 cells/ml in a 12-well plate. Vehicle (0.1% DMSO) or Compound A (2 μM) was added for up to 72 hours. All samples contained >85% AML blasts and were not sorted prior to performing experiments. Immunostaining and flow cytometry analyses were performed according to standard procedures. All antibodies were purchased from BD Biosciences. Single cell suspensions of bone marrow culture were subsequently analyzed on a D×P10 flow cytometer (Cytek). Bone marrow from AML patients were collected through voluntary patient participation at University of California, Los Angeles (Los Angeles, Calif., USA) and Stanford University (Palo Alto, Calif., USA) in compliance with the Institutional Review Board regulations of each institution.
To test the effects of CREB inhibition on AML cells, four AML cell lines were treated with doses of Compound A ranging from 100 pM to 10 μM for 48 hours. […] KG-1 cells were less sensitive to Compound A and expressed lower levels of CREB compared to HL-60 cells (FIG. 2, panel A). CREB was overexpressed to determine whether sensitivity of KG-1 cells to Compound A could be increased. KG-1 cell lines in which CREB or CBP was overexpressed, or CREB was knocked down by shRNA, were generated (FIG. 2C). A KG-1 cell line expressing only GFP was used as a control. These cell lines were treated with a range of Compound A concentrations for 48 hours (FIG. 2D). Experiments were also performed to examine the efficacy of combining Compound A with cytarabine or daunorubicin, standard drugs used in AML therapy.

[2] = test system: KG-1 cells; test: Chemotherapy combination, isobolograms in KG-1 cells; details: 48 hours
Protocol: as §1
To test the effects of CREB inhibition on AML cells, four AML cell lines were treated with doses of Compound A ranging from 100 pM to 10 μM for 48 hours. […] KG-1 cells were less sensitive to Compound A and expressed lower levels of CREB compared to HL-60 cells (FIG. 2, panel A). […]

[3] = target: T1, CREB/CBP association (Homo sapiens, UniProt Q92793); test: Anti-CBP immunoprecipitation of CREB-transfected HEK293 cells; details: HEK293 lysates or cells, 5 μM, 1 hour
T1 construct: endogenous in cells; host or cells: HEK293 cells (CBP endogenous; CREB from a transfected plasmid)
Protocol: Mutation of Arginine-600 to Alanine reduced binding of Compound A by ˜45% at a concentration of 5 μM, while a KIX mutant lacking amino acids 586-602 reduced binding by ˜70%. Panel C) Binding model of Compound A to CBP KIX domain. […] Panel E). Two KG-1 cell lines were generated in which luciferase was expressed either under the control of a CREB-driven promoter (CRE) or a CMV-driven promoter (CMV). These two cell lines were each treated with a range of Compound A or Analog B concentrations for 6 hours. […] HEK293 cells were transfected with a plasmid expressing CREB. Cells were treated with Compound A (A, 5 μM, lane 3) or DMSO vehicle (D) for 1 hour. Total lysates of transfected HEK293 cells were immunoprecipitated using anti-CBP antibody. Compound A (A, 5 μM) was added during anti-CBP Immunoprecipation process (lane 1). Immunoprecipitates (CBP-IP) and total lysates were analyzed by immunoblotting for phospho-CREB (p-CREB) and CBP.
To test the ability of Compound A to disrupt CREB-CBP binding in cells, a split Renilla luciferase complementation assay was performed. […] This early timepoint was selected to permit accurate reporter gene activity measurement prior to the onset of anticipated global cell dysfunction or death induced by Compound A. Treatment with 3 μM Compound A reduced luciferase activity by 33.2±7.7% at this timepoint. […]

T1 sequence (Q92793 whole entry): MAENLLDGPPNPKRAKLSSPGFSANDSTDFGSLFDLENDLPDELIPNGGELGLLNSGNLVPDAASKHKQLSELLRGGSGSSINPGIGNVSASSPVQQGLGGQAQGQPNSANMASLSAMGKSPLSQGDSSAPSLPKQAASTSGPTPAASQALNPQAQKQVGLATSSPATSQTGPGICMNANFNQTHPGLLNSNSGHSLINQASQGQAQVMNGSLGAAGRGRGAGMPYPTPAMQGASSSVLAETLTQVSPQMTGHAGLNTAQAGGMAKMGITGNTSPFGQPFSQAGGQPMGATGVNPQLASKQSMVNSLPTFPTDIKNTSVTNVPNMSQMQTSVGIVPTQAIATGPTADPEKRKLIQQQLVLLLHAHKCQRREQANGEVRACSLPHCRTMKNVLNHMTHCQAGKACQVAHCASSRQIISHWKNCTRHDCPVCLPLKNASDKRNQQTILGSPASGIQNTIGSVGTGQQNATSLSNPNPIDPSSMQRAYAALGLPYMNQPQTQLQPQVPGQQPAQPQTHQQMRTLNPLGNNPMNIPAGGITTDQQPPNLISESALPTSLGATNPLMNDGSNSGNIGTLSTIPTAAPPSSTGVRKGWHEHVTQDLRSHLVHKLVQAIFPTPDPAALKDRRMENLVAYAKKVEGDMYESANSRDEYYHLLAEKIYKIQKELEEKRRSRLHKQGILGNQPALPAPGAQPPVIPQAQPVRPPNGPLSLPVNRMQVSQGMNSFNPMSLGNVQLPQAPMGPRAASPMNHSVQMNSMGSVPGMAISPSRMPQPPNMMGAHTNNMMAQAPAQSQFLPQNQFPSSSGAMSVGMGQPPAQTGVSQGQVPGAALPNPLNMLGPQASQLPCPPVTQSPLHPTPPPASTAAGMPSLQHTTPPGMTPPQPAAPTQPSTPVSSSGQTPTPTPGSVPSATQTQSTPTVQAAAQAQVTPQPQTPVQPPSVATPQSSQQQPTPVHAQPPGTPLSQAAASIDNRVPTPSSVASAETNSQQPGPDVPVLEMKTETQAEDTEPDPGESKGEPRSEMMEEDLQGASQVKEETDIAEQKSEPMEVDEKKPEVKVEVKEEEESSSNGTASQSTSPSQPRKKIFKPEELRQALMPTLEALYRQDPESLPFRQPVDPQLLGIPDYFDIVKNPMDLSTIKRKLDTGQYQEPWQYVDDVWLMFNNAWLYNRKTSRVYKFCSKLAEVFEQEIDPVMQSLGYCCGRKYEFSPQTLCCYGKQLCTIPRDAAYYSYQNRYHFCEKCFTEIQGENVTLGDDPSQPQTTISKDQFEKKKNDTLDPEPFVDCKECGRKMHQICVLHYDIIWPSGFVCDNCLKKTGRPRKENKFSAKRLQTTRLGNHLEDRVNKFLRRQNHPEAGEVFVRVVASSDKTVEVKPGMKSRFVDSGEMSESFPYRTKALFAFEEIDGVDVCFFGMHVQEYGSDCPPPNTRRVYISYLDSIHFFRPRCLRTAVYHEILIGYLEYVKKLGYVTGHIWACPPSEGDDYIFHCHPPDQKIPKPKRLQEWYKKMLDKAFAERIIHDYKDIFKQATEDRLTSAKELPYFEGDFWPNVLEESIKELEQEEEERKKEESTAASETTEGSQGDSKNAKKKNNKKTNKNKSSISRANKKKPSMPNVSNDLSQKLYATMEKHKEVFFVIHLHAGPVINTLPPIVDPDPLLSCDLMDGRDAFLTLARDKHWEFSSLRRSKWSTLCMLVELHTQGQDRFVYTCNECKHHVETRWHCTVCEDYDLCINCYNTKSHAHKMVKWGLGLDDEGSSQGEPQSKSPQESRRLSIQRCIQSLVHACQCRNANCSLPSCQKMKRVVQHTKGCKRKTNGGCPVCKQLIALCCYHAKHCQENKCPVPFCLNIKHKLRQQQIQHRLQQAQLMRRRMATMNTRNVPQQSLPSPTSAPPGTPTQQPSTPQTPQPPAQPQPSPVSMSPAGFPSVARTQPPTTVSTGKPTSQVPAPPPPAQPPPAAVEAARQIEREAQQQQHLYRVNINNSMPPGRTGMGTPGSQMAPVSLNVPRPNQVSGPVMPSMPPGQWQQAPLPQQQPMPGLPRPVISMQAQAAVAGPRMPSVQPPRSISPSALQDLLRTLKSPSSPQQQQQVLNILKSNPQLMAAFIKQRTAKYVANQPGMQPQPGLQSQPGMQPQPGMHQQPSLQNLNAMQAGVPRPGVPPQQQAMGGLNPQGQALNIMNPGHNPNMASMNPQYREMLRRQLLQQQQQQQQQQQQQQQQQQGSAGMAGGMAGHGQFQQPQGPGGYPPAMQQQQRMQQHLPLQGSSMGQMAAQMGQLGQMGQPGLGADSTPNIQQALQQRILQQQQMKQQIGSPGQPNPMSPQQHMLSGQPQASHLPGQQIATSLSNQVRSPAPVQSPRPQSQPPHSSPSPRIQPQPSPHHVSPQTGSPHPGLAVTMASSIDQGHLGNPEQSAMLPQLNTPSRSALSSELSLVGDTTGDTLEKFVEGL

N#Cc1ccc(NC(=O)c2cc3ccccc3cc2O)cc1 [Compound A, N-(4-cyanophenyl)-3-hydroxy-2-naphthamide]
IC50 ([1]; KG-1 CBP OE): 826 nM | IC50 ([1]; KG-1 CREB KD): 1790 nM | IC50 ([1]; KG-1 CREB OE): 687 nM | IC50 ([1]; KG-1 GFP control): 1040 nM | interaction with daunorubicin and cytarabine (isobolograms) [2]: synergistic | Combination Index (CI) ([2]; Compound A with cytarabine): less than 1 | Combination Index (CI) ([2]; Compound A with daunorubicin): less than 1 | binding of CREB to CBP (immunoprecipitation) [3]: inhibits CREB/CBP association; also recorded: prevented binding of CREB to CBP
